{"source": "patent US20090203658A1", "about": "“NEUROACTIVE STEROID COMPOSITIONS AND METHODS OF USE THEREFOR” (Duke University, priority 2007, published 2009)", "key": {"rat frontal cortex": {"test_system": "rat frontal cortex", "test": "Neuroactive steroid levels in frontal cortex after chronic lithium or valproate (GC/MS preceded by HPLC)", "format": "in vivo, Male Wistar Kyoto rats", "details": "chronic administration four weeks, n=9", "method": "Lithium and Valproate Administration.\nNS analyses in rat and mouse frontal cortex were performed as described in Marx et al., 2006a; Marx et al., 2006b; and Marx et al., 2006c. Rodent brain tissue was homogenized in 5 volumes of distilled water containing about 2200 cpm (4400 dpm/injection) of tritiated NS (Perkin Elmer, Waltham, Mass.) to detect the HPLC fraction containing the NS of interest. Deuterated ALLO (D4-ALLO, 400 pg) and deuterated PG (D4-PG, 400 pg) were used as internal standards. Supernatants were extracted three times with three volumes of ethyl acetate and dried under nitrogen prior to HPLC purification. […] The limit of NS detection with this method was 2 pg for ALLO and 10 pg for PG. Mean intra-assay coefficients of variation were 3.9% for ALLO and 3.0% for PG.\nStatistical Analysis. For rat experiments utilizing chronic lithium and valproate administration, data were analyzed by ANOVA with post-hoc Dunnett tests. Data from Bcl-2 knockout mouse experiments were analyzed by unpaired t-tests.\nTo that end, NS levels (ALLO and PG) were determined in frontal cortex by negative ion chemical ionization gas chromatography/mass spectrometry in male Wistar Kyoto rats treated chronically with lithium, valproate, or vehicle. NS were also investigated in heterozygous Bcl-2 knockout mice."}, "[1]": {"test": "Serum drug levels after chronic lithium or valproate in chow", "details": "chow 1.2 then 2.4 g Li2CO3/kg, four weeks; measured by atomic absorption", "excerpt": "Lithium and Valproate Administration. […] Animals were fed with control rodent chow or chow containing a low dose of lithium (1.2 g Li2CO3/kg) or valproate (10 g/kg) for one week to allow the animals to slowly acclimate to the drug, and were then fed with chow containing a full dose of lithium (2.4 g Li2CO3/kg) or valproate (20 g/kg) for three weeks. On the last day of the treatment, animals were sacrificed, and trunk blood was collected to measure lithium and valproate levels in the serum."}, "healthy male smokers": {"test_system": "healthy male smokers", "test": "Pilot study of one-time DHEA or PG after overnight abstinence from cigarettes: craving measures", "format": "in vivo, human", "details": "one-time 400 mg; vs. placebo", "method": "Elaborating, a pilot study is provided herein, which involves administering one-time DHEA (400 mg), PG (400 mg) or placebo to healthy male smokers following overnight abstinence from cigarettes. […] Thus, neuroactive steroids can be candidate therapeutic molecules for smoking cessation."}, "[2]": {"details": "DHEA administration in humans (50 mg); cited from earlier work"}, "[3]": {"test_system": "subjects with schizophrenia or schizoaffective disorder", "test": "Randomized placebo-controlled double-blind trial of adjunctive PG: negative and cognitive symptoms (SANS, BACS, MATRICS)", "format": "in vivo, human", "source_text": "Of 21 subjects randomized, 18 completed at least four weeks of treatment (n=9 per group). […] Increases in serum PG levels were positively correlated with cognitive improvement in the PG group, predicting both BACS (r=0.79, n=9, p=0.02; see FIG. 3A) and MATRICS (r=0.70, n=9, p=0.05; see FIG. 3B) composite scores at eight weeks. The mean BACS z-score increase for the PG group was 0.60 (vs. 0.22 for the placebo group). BACS and MATRICS assessments were correlated (r=0.74, p<0.0001)."}, "[4]": {"test_system": "subjects with schizophrenia or schizoaffective disorder"}, "[5]": {"details": "single dose of PG 175 mg; over the course of 5-8 hours; cited from earlier work"}, "brain": {"test_system": "brain", "details": "in vivo; cited from earlier work"}, "[6]": {"details": "change from baseline (Hillside AE Form), n = 9"}, "[7]": {"details": "change from baseline (Hillside AE Form), n = 9, mild in all subjects"}}, "note": "Marks after values point to notes of the source that are not given here.", "data": [{"smiles": "[Li]", "note": "[lithium]", "values": [{"measurement": "mean ALLO levels in rat frontal cortex", "setting": "rat frontal cortex; 0.75 SEM, vehicle 0.71 ng/g, post-hoc Dunnett p<0.05", "result": 2.42, "unit": "ng/g"}, {"measurement": "mean PG levels in rat frontal cortex", "setting": "rat frontal cortex; ±2.95 SEM, vehicle 3.37 ng/g, post-hoc Dunnett p=0.09", "result": 8.19, "unit": "ng/g"}, {"measurement": "serum lithium level", "setting": "[1]", "result": "0.74 ±0.31", "unit": "mEq/l"}]}, {"smiles": "C[C@]12CC[C@H](O)CC1=CC[C@@H]1[C@@H]2CC[C@]2(C)C(=O)CC[C@@H]12", "note": "[DHEA, dehydroepiandrosterone]", "values": [{"measurement": "craving measures following overnight smoking cessation", "setting": "healthy male smokers", "result": "attenuates craving measures"}, {"measurement": "increase of ALLO", "setting": "[2]", "result": "three-fold"}]}, {"smiles": "CC(=O)[C@H]1CC[C@H]2[C@@H]3CC=C4C[C@@H](O)CC[C@]4(C)[C@H]3CC[C@]12C", "note": "[PG, pregnenolone]", "values": [{"measurement": "mean change in SANS scores (improvement)", "setting": "[3]; PG 50 to 250 mg BID for 8 weeks added to second generation antipsychotics, n=9, placebo 2.33, p=0.05", "result": 10.38}, {"measurement": "mean BACS z-score increase", "setting": "[3]; PG group, placebo group 0.22", "result": 0.60}, {"measurement": "craving measures following overnight smoking cessation", "setting": "healthy male smokers", "result": "attenuates craving measures"}, {"measurement": "AIMS, Barnes Akathisia Scale, Simpson-Angus Scale, blood pressure, pulse, or weight", "setting": "[4]; PG administration", "result": "did not result in a significant change"}, {"measurement": "tolerability", "setting": "[4]; PG group, n=9", "result": "well-tolerated"}, {"measurement": "glucose level, average post-treatment", "setting": "[4]; average baseline 117.9 mg/dl", "result": 119.0, "unit": "mg/dL"}, {"measurement": "cholesterol, average post-treatment", "setting": "[4]; average baseline 185.8 mg/dl", "result": 164.6, "unit": "mg/dL"}, {"measurement": "QTc intervals on EKG", "setting": "[4]; baseline (visit 1) vs. week 10 (visit 6)", "result": "did not negatively impact"}, {"measurement": "Akathisia", "setting": "[4]; [6]", "result": "0 N (%)"}, {"measurement": "All Other Side Effects", "setting": "[4]; [6]", "result": "0 N (%)"}, {"measurement": "Blurred Vision", "setting": "[4]; [6]", "result": "0 N (%)"}, {"measurement": "Diarrhea", "setting": "[4]; [6]", "result": "0 N (%)"}, {"measurement": "Drowsiness", "setting": "[4]; [6]", "result": "0 N (%)"}, {"measurement": "Excitation/Agitation", "setting": "[4]; [6]", "result": "0 N (%)"}, {"measurement": "Headache", "setting": "[4]; [6]", "result": "0 N (%)"}, {"measurement": "Impaired Sexual Performance", "setting": "[4]; [6]", "result": "0 N (%)"}, {"measurement": "Insomnia", "setting": "[4]; [6]", "result": "0 N (%)"}, {"measurement": "Joint Pain/Stiffness", "setting": "[4]; [6]", "result": "0 N (%)"}, {"measurement": "Malaise", "setting": "[4]; [6]", "result": "0 N (%)"}, {"measurement": "Nasal Congestion", "setting": "[4]; [6]", "result": "0 N (%)"}, {"measurement": "Peripheral Edema", "setting": "[4]; [6]", "result": "0 N (%)"}, {"measurement": "Rigidity", "setting": "[4]; [6]", "result": "0 N (%)"}, {"measurement": "Sweating", "setting": "[4]; [6]", "result": "0 N (%)"}, {"measurement": "Tremor", "setting": "[4]; [6]", "result": "0 N (%)"}, {"measurement": "Hypertension", "setting": "[4]; change from baseline (Hillside AE Form), n = 9, mild (<145/90)", "result": "1 (11%)^b N (%)"}, {"measurement": "Cold Extremities", "setting": "[4]; [7]", "result": "1 (11%)^a N (%)"}, {"measurement": "Decreased Interest in Sex", "setting": "[4]; [7]", "result": "1 (11%)^a N (%)"}, {"measurement": "Dry mouth", "setting": "[4]; [7]", "result": "1 (11%)^a N (%)"}, {"measurement": "Muscle Pain/Stiffness", "setting": "[4]; [7]", "result": "1 (11%)^a N (%)"}, {"measurement": "Restlessness", "setting": "[4]; [7]", "result": "2 (22%)^a N (%)"}, {"measurement": "Disorientation (to date, address, mayor, or MD name)", "setting": "[4]; change from baseline pre-randomization (Hillside AE Form), n = 9, mild in all subjects", "result": "2 (22%)^a N (%)"}, {"measurement": "increase in serum ALLO levels after PG administration", "setting": "eight weeks of PG vs. baseline, schizophrenia subjects", "result": "over 5 fold"}, {"measurement": "PGS levels after PG administration", "setting": "subjects with schizophrenia, baseline vs. 10 weeks", "result": "significantly increased"}, {"measurement": "change of serum PG levels", "setting": "[5]", "result": "approximately doubled"}]}, {"smiles": "CNCCC(Oc1ccc(C(F)(F)F)cc1)c1ccccc1", "note": "(stereo not shown) [Fluoxetine]", "values": [{"measurement": "effect on brain ALLO levels and PG levels", "setting": "brain", "result": "elevates"}]}]}
